Measured values as given in US20190239509A1, “METHOD OF CONTROLLING PLANTS” (SYNGENTA PARTICIPATIONS AG, priority 2016, published 2019).

Columns and labels:
Type in all cases: in vivo
[1] = tested on: Euphorbia heterophylla (EPPHL); assay: B3 drilled field trial Brazil, post-emergence, EPPHL; conditions: Summer season, 28 days after application
Experimental: (§1) Seeds of a variety of test species were used in drilled field trials to look at the control of important weed species present in corn crops as well as the effect on soybean (a volunteer crop in corn). Trials were carried out in Brazil in the summer season and the second season.
(§2) Plot size was 10-15 m^2, and two replicates were carried out per treatment. Plants were treated post-emergence between the 2 and 4 leaf stage. Species tested were Amaranthus retroflexus (AMARE), Ipomoea grandifolia (IAQGR), Digitaria horizontalis (DIGHO), Bidens pilosa (BIDPI), Eleusine indica (ELEIN), Brachiaria decumbens (BRADC), Centrus echinatus (CCHEC), Euphorbia heterophylla (EPPHL), Brachiaria plantaginea (BRAPL) and Glycine max (GLXMA; soybean). Fungicides and insecticides were used as necessary for plant health. The test was evaluated at 28 days after application with 100=total damage to plant and 0=no damage to plant.
(§3) Expected results were calculated using the Colby Formula.

[2] = tested on: Ipomoea grandifolia (IAQGR); assay: B3 drilled field trial Brazil, post-emergence, IAQGR; conditions: 28 days after application
Experimental: as §1, §2, §3

Eleusine indica (ELEIN) = assay: B3 drilled field trial Brazil, post-emergence, ELEIN; conditions: 28 days after application
Experimental: as §1, §2, §3

[3] = tested on: Euphorbia heterophylla (EPPHL); assay: B2 drilled field trial Brazil, post-emergence, EPPHL; conditions: 100=total damage, 0=no damage; for EPPHL 7DAA Observed: 7 days after application; for EPPHL 30 DAA Observed: 30 days after application
Experimental: (§4) Seeds of a variety of test species were used in drilled field trials to look at the control of important weed species present in corn crops as well as the effect on soybean (a volunteer crop in corn). Trials were carried out in Brazil in the summer season.
(§5) Plot size was 10-12 m^2, and two replicates were carried out per treatment. Plants were treated post-emergence at the 4 leaf stage. Fungicides and insecticides were used as necessary for plant health. The test was evaluated at 7 and 30 days after application (Amaranthus viridis (AMAVI), Bidens pilosa (BIDPI), Euphorbia heterophylla (EPPHL)) and 9 and 37 days after application (Brachiaria plantaginea (BRAPL) and soybean (Glycine max GLXMA) with 100=total damage to plant and 0=no damage to plant.
as §3

[4] = tested on: soybean (Glycine max GLXMA); assay: B2 drilled field trial Brazil, post-emergence, soybean; conditions: 100=total damage, 0=no damage; for GLXMA 9DAA Observed: 9 days after application; for GLXMA 37 DAA Observed: 37 days after application
Experimental: as §4, §5, §3

[5] = tested on: Digitaria horizontalis (DIGHO); assay: B3 drilled field trial Brazil, post-emergence, DIGHO; conditions: 28 days after application
Experimental: as §1, §2, §3

[6] = tested on: Glycine max (GLXMA; soybean); assay: B3 drilled field trial Brazil, post-emergence, soybean; conditions: 28 days after application
Experimental: as §1, §2, §3

[7] = tested on: Amaranthus retroflexus (AMARE); assay: B3 drilled field trial Brazil, post-emergence, AMARE; conditions: 28 days after application, 100=total damage, 0=no damage
Experimental: as §1, §2, §3

With CCOC1C(O)N(c2cc(C(C)(C)C)on2)C(=O)N1C (stereo not drawn) [Compound 1.4] as the molecule, how does the “Observed damage (100=total damage to plant, 0=no damage)” value ([1]; 50 g ai/ha) read?
The value was 38.

What about the “Observed damage (100=total damage to plant, 0=no damage)” value ([1]; 75 g ai/ha) of the same molecule?
Its value is 58.

And the “Observed damage (100=total damage to plant, 0=no damage)” value ([1]; 100 g ai/ha)?
The value was 46.

And the “Observed damage (100=total damage to plant, 0=no damage)” value ([1]; 150 g ai/ha)?
The value was 52.

What about the “Observed damage (100=total damage to plant, 0=no damage)” value ([2]; Second season, 50 g ai/ha) of the same molecule?
The value was 0.

And the “Observed damage (100=total damage to plant, 0=no damage)” value ([2]; Second season, 75 g ai/ha)?
The value was 3.

What about the “Observed damage (100=total damage to plant, 0=no damage)” value ([2]; Second season, 100 g ai/ha) of the same molecule?
Its value is 36.

What about the “Observed damage (100=total damage to plant, 0=no damage)” value ([2]; Second season, 150 g ai/ha) of the same molecule?
The value was 69.

What about the “Observed damage (100=total damage to plant, 0=no damage)” value ([2]; Summer season, 50 g ai/ha) of the same molecule?
The value was 33.

And the “Observed damage (100=total damage to plant, 0=no damage)” value ([2]; Summer season, 75 g ai/ha)?
Its value is 38.

And the “Observed damage (100=total damage to plant, 0=no damage)” value ([2]; Summer season, 100 g ai/ha)?
Its value is 68.

And the “Observed damage (100=total damage to plant, 0=no damage)” value ([2]; Summer season, 150 g ai/ha)?
Its value is 100.

And the “Observed damage (100=total damage to plant, 0=no damage)” value (Eleusine indica (ELEIN); Second season, 50 g ai/ha)?
Its value is 8.

And the “Observed damage (100=total damage to plant, 0=no damage)” value (Eleusine indica (ELEIN); Second season, 75 g ai/ha)?
Its value is 11.

What about the “Observed damage (100=total damage to plant, 0=no damage)” value (Eleusine indica (ELEIN); Second season, 100 g ai/ha) of the same molecule?
Its value is 11.

And the “Observed damage (100=total damage to plant, 0=no damage)” value (Eleusine indica (ELEIN); Second season, 150 g ai/ha)?
The value was 14.

And the “Observed damage (100=total damage to plant, 0=no damage)” value (Eleusine indica (ELEIN); Summer season, 50 g ai/ha)?
The value was 18.

What about the “Observed damage (100=total damage to plant, 0=no damage)” value (Eleusine indica (ELEIN); Summer season, 75 g ai/ha) of the same molecule?
The value was 25.

What about the “Observed damage (100=total damage to plant, 0=no damage)” value (Eleusine indica (ELEIN); Summer season, 100 g ai/ha) of the same molecule?
The value was 33.

What about the “Observed damage (100=total damage to plant, 0=no damage)” value (Eleusine indica (ELEIN); Summer season, 150 g ai/ha) of the same molecule?
Its value is 53.

What about the “EPPHL 7DAA Observed” value ([3]; 75 g ai/ha) of the same molecule?
The value was 25.

What about the “EPPHL 30 DAA Observed” value ([3]; 75 g ai/ha) of the same molecule?
The value was 18.

What about the “EPPHL 7DAA Observed” value ([3]; 100 g ai/ha) of the same molecule?
The value was 30.

And the “EPPHL 30 DAA Observed” value ([3]; 100 g ai/ha)?
The value was 25.

And the “EPPHL 7DAA Observed” value ([3]; 150 g ai/ha)?
Its value is 48.

What about the “EPPHL 30 DAA Observed” value ([3]; 150 g ai/ha) of the same molecule?
Its value is 25.

What about the “GLXMA 9DAA Observed” value ([4]; 75 g ai/ha) of the same molecule?
Its value is 63.

What about the “GLXMA 37 DAA Observed” value ([4]; 75 g ai/ha) of the same molecule?
The value was 45.

What about the “GLXMA 9DAA Observed” value ([4]; 100 g ai/ha) of the same molecule?
Its value is 55.

And the “GLXMA 37 DAA Observed” value ([4]; 100 g ai/ha)?
Its value is 0.

And the “GLXMA 9DAA Observed” value ([4]; 150 g ai/ha)?
Its value is 73.

And the “GLXMA 37 DAA Observed” value ([4]; 150 g ai/ha)?
The value was 30.

And the “Observed damage (100=total damage to plant, 0=no damage)” value ([5]; Second season, 50 g ai/ha)?
The value was 0.

And the “Observed damage (100=total damage to plant, 0=no damage)” value ([5]; Second season, 75 g ai/ha)?
The value was 0.

What about the “Observed damage (100=total damage to plant, 0=no damage)” value ([5]; Second season, 100 g ai/ha) of the same molecule?
The value was 0.

What about the “Observed damage (100=total damage to plant, 0=no damage)” value ([5]; Second season, 150 g ai/ha) of the same molecule?
Its value is 0.

And the “Observed damage (100=total damage to plant, 0=no damage)” value ([5]; Summer season, 50 g ai/ha)?
Its value is 23.

And the “Observed damage (100=total damage to plant, 0=no damage)” value ([5]; Summer season, 75 g ai/ha)?
Its value is 45.

What about the “Observed damage (100=total damage to plant, 0=no damage)” value ([5]; Summer season, 100 g ai/ha) of the same molecule?
The value was 45.

And the “Observed damage (100=total damage to plant, 0=no damage)” value ([5]; Summer season, 150 g ai/ha)?
The value was 69.

What about the “Observed damage (100=total damage to plant, 0=no damage)” value ([6]; Second season, 50 g ai/ha) of the same molecule?
Its value is 44.

What about the “Observed damage (100=total damage to plant, 0=no damage)” value ([6]; Second season, 75 g ai/ha) of the same molecule?
Its value is 56.

What about the “Observed damage (100=total damage to plant, 0=no damage)” value ([6]; Second season, 100 g ai/ha) of the same molecule?
Its value is 79.

And the “Observed damage (100=total damage to plant, 0=no damage)” value ([6]; Second season, 150 g ai/ha)?
The value was 86.

What about the “Observed damage (100=total damage to plant, 0=no damage)” value ([6]; Summer season, 50 g ai/ha) of the same molecule?
The value was 44.

What about the “Observed damage (100=total damage to plant, 0=no damage)” value ([6]; Summer season, 75 g ai/ha) of the same molecule?
The value was 49.

What about the “Observed damage (100=total damage to plant, 0=no damage)” value ([6]; Summer season, 100 g ai/ha) of the same molecule?
Its value is 60.

What about the “Observed damage (100=total damage to plant, 0=no damage)” value ([6]; Summer season, 150 g ai/ha) of the same molecule?
The value was 83.

And the “AMARE Second season Observed” value ([7]; 50 g ai/ha)?
The value was 12.

And the “AMARE Summer season Observed” value ([7]; 50 g ai/ha)?
Its value is 73.

What about the “AMARE Second season Observed” value ([7]; 75 g ai/ha) of the same molecule?
The value was 14.
